Assay results taken from patent publication US20050197350A1, “Novel quinoline, tetrahydroquinazoline, and pyrimidine derivatives and methods of treatment related to the use thereof” (TAISHO PHARMACEUTICAL CO., LTD., priority 2003, published 2005).
Counter-ions that a name gives are not always drawn. Like-named read-outs stand apart in the source and are kept apart here.

Biological target: MCH receptor (Homo sapiens, UniProt Q99705)
Test: High throughput functional screening FLIPR/FDSS6000 (intracellular Ca2+ evoked by MCH)
Assay type: cell-based
Details: FLIPR/FDSS, antagonist activity vs 50 nM MCH, class by percent of control at 10^−7 M or IC50, read-out: class
Method in brief: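 For antagonist testing, compound-treated cells (30 min, 37 °C) were stimulated with 50 nM MCH and intracellular Ca2+ followed by Fluo4 fluorescence on FLIPR/FDSS6000. Receptor was a constitutively active, non-endogenous MCH receptor; dye loading 4 μM Fluo4-AM, 1 h, 37 °C.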

Row | SMILES | IC50 (table after the classification) [nM] | IC50 [nM]
1 | CN(CC(=O)N[C@H]1CC[C@@H](Nc2ccc3ccccc3n2)CC1)c1ccccc1 [Example 3066, C-(Methyl-phenyl-amino)-N-[cis-4-(quinolin-2-ylamino)-cyclohexyl]-acetamide dihydrochloride] | < 50 | 
2 | Cc1cc(N[C@H]2CC[C@@H](NC(=O)c3cc(C(F)(F)F)cc(C(F)(F)F)c3)CC2)nc2ccccc12 [Example 3157, N-[cis-4-(4-Methyl-quinolin-2-ylamino)-cyclohexyl]-3,5-bis-trifluoromethyl-benzamide hydrochloride] | 50 to 200 | 
3 | Cc1cnc(N[C@H]2CC[C@@H](C(=O)N[C@@H](C)c3ccc(Br)cc3)CC2)nc1N(C)C [Example 3308, cis-N-[(1S)-1-(4-bromophenyl)ethyl]-4-{[4-(dimethylamino)-5-methylpyrimidin-2-yl]amino}cyclohexanecarboxamide] |  | < 50
4 | CCc1cc(N(C)C)nc(N[C@H]2CC[C@@H](NC(=O)c3ccc(F)c(F)c3)CC2)n1 [Example 3231, N-[cis-4-(4-Dimethylamino-6-ethyl-pyrimidin-2-ylamino)-cyclohexyl]-3,4-difluoro-benzamide hydrochloride] | 50 to 200 | 
5 | CCN(CC(=O)N[C@H]1CC[C@@H](Nc2ccc3ccccc3n2)CC1)c1ccc(Cl)cc1 [Example 3154, C-[(4-Chloro-phenyl)-ethyl-amino]-N-[cis-4-(quinolin-2-ylamino)-cyclohexyl]-acetamide dihydrochloride] | < 50 | 
6 | CN(C)c1nc(N[C@H]2CC[C@@H](NC(=O)c3cccnc3Oc3ccccc3)CC2)ncc1-c1ccccc1 [Example 3136, N-[cis-4-(4-Dimethylamino-5-phenyl-pyrimidin-2-ylamino)-cyclohexyl]-2-phenoxy-nicotinamide hydrochloride] | > 200 | 
7 | COc1ccnc(N[C@H]2CC[C@@H](NC(=O)c3ccc(F)c(F)c3)CC2)n1 [Example 3131, 3,4-Difluoro-N-[cis-4-(4-methoxy-pyrimidin-2-ylamino)-cyclohexyl]-benzamide hydrochloride] | > 200 | 
8 | Cc1cnc(N[C@H]2CC[C@@H](NC(=O)N(C)c3ccccc3Cl)CC2)nc1N(C)C [Example 3347, N-(2-chlorophenyl)-N′-(cis-4-{[4-(dimethylamino)-5-methylpyrimidin-2-yl]amino}cyclohexyl)-N-methylurea] |  | 50 to 200
9 | Cc1cc(N(C)C)nc(N[C@H]2CC[C@@H](C(=O)NC(C)(C)c3cc(C(F)(F)F)cc(C(F)(F)F)c3)CC2)n1 [Example 3275, cis-N-{1-[3,5-bis(trifluoromethyl)phenyl]-1-methylethyl}-4-{[4-(dimethylamino)-6-methylpyrimidin-2-yl]amino}cyclohexanecarboxamide] |  | > 200
10 | Cc1cc(N(C)C)nc(N[C@H]2CC[C@@H](NC(=O)c3cccnc3Oc3ccccc3)CC2)n1 [Example 3126, N-[cis-4-(4-Dimethylamino-6-methyl-pyrimidin-2-ylamino)-cyclohexyl]-2-phenoxy-nicotinamide hydrochloride] | < 50 | 
11 | CN(C)c1cc(N[C@H]2CC[C@@H](CNC(=O)c3cccnc3Oc3ccccc3)CC2)nc2ccccc12 [Example 3118, N-[cis-4-(4-Dimethylamino-quinolin-2-ylamino)-cyclohexylmethyl]-2-phenoxy-nicotinamide hydrochloride] | > 200 | 
12 | Cc1cc(N[C@H]2CC[C@@H](NC(=O)c3ccc(Br)o3)CC2)nc2ccccc12 [Example 3083, 5-Bromo-furan-2-carboxylic acid-[cis-4-(4-methyl-quinolin-2-ylamino)-cyclohexyl]-amide hydrochloride] | < 50 | 
13 | Cc1cc(N(C)C)nc(N[C@H]2CC[C@@H](NC(=O)c3ccc(Cl)c(F)c3)CC2)n1 [Example 3383, 4-Chloro-N-[cis-4-(4-dimethylamino6-methyl-pyrimidin-2-ylamino)-cyclohexyl]3-fluoro-benzamide hydrochloride] | < 50 | 
14 | Cc1cc(N(C)C)nc(N[C@H]2CC[C@@H](NC(=O)c3ccc(F)c(F)c3)CC2)n1 [Example 3127, N-[cis-4-(4-dimethylamino-C-methyl-pyrimidin-2-ylamino)-cyclohexyl]-3,4-difluoro-benzamide hydrochloride] | < 50 | 
15 | COc1cc(OC)nc(N[C@H]2CC[C@@H](NC(=O)c3cccnc3Oc3ccccc3)CC2)n1 [Example 3135, N-[cis-4-(4,6-Dimethoxy-pyrimidin-2-ylamino)-cyclohexyl]-2-phenoxy-nicotinamide hydrochloride] | > 200 | 
16 | CNc1nc(N[C@H]2CC[C@@H](NC(=O)COc3cc(C(F)(F)F)nn3C)CC2)ncc1C [Example 3362, N-(cis-4-{[5-methyl-4-(methylamino)pyrimidin-2-yl]amino}-cyclohexyl)-2-{[1-methyl-3-(trifluoromethyl)-1H-pyrazol-5-yl]oxy}acetamide] |  | > 200
17 | Cc1cc(N[C@H]2CC[C@@H](NC(=O)c3cccc(C(N)=O)c3)CC2)nc2ccccc12 [Example 3178, N-[cis-4-(4-Methylquinolin-2-ylamino)-cyclohexyl]-isophthalamide hydrochloride] | 50 to 200 | 

Row | SMILES | IC50 (table after the classification) [nM] | IC50 [nM]
18 | Cc1cnc(NC2CCC(C(=O)N[C@H](C)c3ccccc3C(F)(F)F)CC2)nc1N(C)C (stereo partly drawn) [Example 3301, 4-{[4-(dimethylamino)-5-methylpyrimidin-2-yl]amino}-N-{(1R)-1-[2-(trifluoromethyl)phenyl]ethyl}cyclohexanecarboxamide] |  | > 200
19 | Cc1ccc(Oc2ncccc2C(=O)N[C@H]2CC[C@@H](Nc3cc(C)c4ccccc4n3)CC2)cc1 [Example 3092, N-[cis-4-(4-Methyl-quinolin-2-ylamino)-cyclohexyl]-2-p-tolyloxy-nicotinamide hydrochloride] | < 50 | 
20 | Cc1cc(N[C@H]2CC[C@@H](NC(=O)c3ccc(C(F)(F)F)nc3)CC2)nc2ccccc12 [Example 3186, N-[cis-4-(4-Methyl-quinolin-2-ylamino)-cyclohexyl]-6-trifluoromethyl-nicotinamide hydrochloride] | 50 to 200 | 
21 | O=C(N[C@H]1CC[C@@H](Nc2ccc3ccccc3n2)CC1)c1cccnc1Oc1ccc(F)cc1 [Example 3054, 2-(4-Fluoro-phenoxy)-N-[cis-4-(quinolin-2-ylamino)-cyclohexyl]-nicotinamide hydrochloride] | < 50 | 
22 | O=C(N[C@H]1CC[C@@H](Nc2ccc3ccccc3n2)CC1)c1cccnc1Oc1ccc(F)c(Cl)c1 [Example 3060, 2-(3-Chloro-4-fluoro-phenoxy)-N-[cis-4-(quinolin-2-ylamino)-cyclohexyl]-nicotinamide hydrochloride] | 50 to 200 | 
23 | COc1ccccc1NC(=O)N[C@H]1CC[C@@H](Nc2ncc(C)c(N(C)C)n2)CC1 [Example 3321, N-(cis-4-{[4-(dimethylamino)-5-methylpyrimidin-2-yl]amino}cyclohexyl)-N′-(2-methoxyphenyl)urea] |  | 50 to 200
24 | Cc1cnc(N[C@H]2CC[C@@H](NC(=O)c3cccnc3S(=O)(=O)c3ccccc3Cl)CC2)nc1N(C)C [Example 3284, 2-[(2-chlorophenyl)sulfonyl]-N-(cis-4-{[4-(dimethylamino)-5-methylpyrimidin-2-yl]amino}cyclohexyl)nicotinamide] |  | 50 to 200
25 | Cc1cc(N[C@H]2CC[C@@H](NC(=O)c3cc([N+](=O)[O-])cn3C)CC2)nc2ccccc12 [Example 3081, 1-Methyl-4-nitro-1H-pyrrole-2-carboxylic acid-[cis-4-(4-methyl-quinolin-2-ylamino)-cyclohexyl]-amide hydrochloride] | < 50 | 
26 | Cc1cccc(OCC(=O)N[C@H]2CC[C@@H](Nc3ccc4ccccc4n3)CC2)c1 [Example 3051, N-[cis-4-(Quinolin-2-ylamino)-cyclohexyl]-2-m-tolyloxy-acetamide hydrochloride] | < 50 | 
27 | Cc1cnc(N[C@H]2CC[C@@H](NC(=O)c3ccc(F)c(Cl)c3)CC2)nc1N(C)C [Example 3228, 3-Chloro-N-[cis-4-(4-dimethylamino-5-methyl-pyrimidin-2-ylamino)-cyclohexyl]-4-fluoro-benzamide hydrochloride] | < 50 | 
28 | Cc1cnc(N[C@H]2CC[C@@H](C(=O)N[C@@H](C)c3ccc(Cl)cc3)CC2)nc1N(C)C [Example 3292, cis-N-[(1S)-1-(4-chlorophenyl)ethyl]-4-{[4-(dimethylamino)-5-methylpyrimidin-2-yl]amino}cyclohexanecarboxamide] |  | 50 to 200
29 | CNc1nc(N[C@H]2CC[C@@H](NCCc3ccc(Br)cc3OC(F)(F)F)CC2)nc2c1CCCC2 [Example 10, N^2-{cis-4-[2-(4-Bromo-2-trifluorometboxy-phenyl)-ethylamino]-cyclohexyl}-N^4-methyl-5,6,7,8-tetrahydro-quinazoline-2,4-diamine dihydrochloride] | 50 to 200 | 
30 | Cc1cnc(N[C@H]2CC[C@@H](NC(=O)N(C)c3ccccc3F)CC2)nc1N(C)C [Example 3346, N′-(cis-4-{[4-(dimethylamino)-5-methylpyrimidin-2-yl]amino}cyclohexyl)-N-(2-fluorophenyl)-N-methylurea] |  | > 200
31 | Cc1cc(N[C@H]2CC[C@@H](NC(=O)c3cc(F)cc(Cl)c3)CC2)nc2ccccc12 [Example 3179, 3-Chloro-5-fluoro-N-[cis-4-(4-methyl-quinolin-2-ylamino)-cyclohexyl]-benzamide hydrochloride] | < 50 | 
32 | Cc1cc(N[C@H]2CC[C@@H](C(=O)N[C@@H](C)c3cccc(C(F)(F)F)c3)CC2)nc2ccccc12 [Example 3315, cis-4-[(4-methylquinolin-2-yl)amino]-N-{(1S)-1-[3-(trifluoromethyl)phenyl]ethyl}cyclohexanecarboxamide] |  | < 50
33 | Cc1cc(N[C@H]2CC[C@@H](NC(=O)c3ccc(Cl)cc3)CC2)nc2ccccc12 [Example 3172, 4-Chloro-N-[cis-4-(4-methyl-quinolin-2-ylamino)-cyclohexyl]-benzamide hydrochloride] | < 50 | 
